# Experimental data reported in patent US20110105623A1 (Biogenic Innovations, LLC, priority 2009, published 2011).
# Columns and labels:
# Bacillus coagulans = assay: Colony formation, population weight and percent transmittance with MSM; assay type: cell-based; conditions: 546 nm, 25x25 mm agar section, 1.0, 2.5, 5.0% MSM
# Description: The microorganisms were grown for 72 hours in 30 milliliters of tryptic soy broth. At the end of the 72 hours, the broth was measured for colony formation, with photographic documentation of colony formation on tryptic soy agar. Percent transmittance was also measured on a 25 mm×25 mm area of the tryptic soy agar placed between two microscope slides in a spectrophotometer.
# For the Bacillus coagulans, the organism was isolated and grown for 24 hours before harvesting. The harvested microorganism was placed into a sterile 100 mL bottle called dilution A. Dilution A was further diluted into one working solution, with a count of 210 Bacillus coagulans per 1 mL, called dilution B. One milliliter of Dilution B was used to inoculate the 30 mL of TSB concentrations stated above.
# Each dilution for the microorganism was plated in triplicate for each sample. To capture the appropriate colonies per milliliter, the microorganism was plated at six different dilutions.
# The population count was based on the dilution of the tryptic soy broth after 72 hours and inoculation on to tryptic soy agar plates. The plates were incubated for 48 hours and enumerated.
# The tryptic soy broth after 72 hours was centrifuged down in a conical vial. The supernatant was pulled off and the pellet was washed. The centrifuging and washing was repeated three times. […] Each vial was weighed empty and recorded. […]
# [1] = tested on: Lactobacillus delbrueckii (Lactobacillus bulgaricus); assay: Probiotic growth in media supplemented with MSM; assay type: cell-based; set-up: unit not given here
# Text: Plates were then counted. […] Data are presented in Cfu/mL.
# [2] = tested on: Acidophilus plus Bifidus milk microorganisms; assay: Growth in Acidophilus plus Bifidus milk fortified with MSM; conditions: A/B milk […] MSM
# Description: Then samples were evaluated every 7 days for a total of 28 days. […] The milks were bought at a local store. The Acidophilus milk was low fat (Darigold). The Acidophilus plus Bifidus milk contained 2% milkfat (Lucerne). […] The working solutions were held at 4° C. during the study.
# [3] = tested on: White Labs Edinburgh Ale yeast; assay: Fermentation efficiency in production of beer (Scotch Ale); assay type: cell-based; conditions: 0.5% MSM
# Text: This positive impact includes such organisms as fungi, yeast, and bacteria. Yeast cultures are involved in the production of beer during the fermentation process to produce ethanol and carbon dioxide. […] Wort is the liquid extracted from the mashing process during the brewing of beer or whisky. Wort contains the sugars that are fermented by the brewing yeast to produce alcohol.
# This Procedure is detailed below.
# After preparing the mash, the brewing process was started. […] Equipment was cleaned thoroughly with PBW. The wort chiller and filtered air stone were sanitized with brewing sanitizer (San Star Brewing Sanitizer). […] At 30 minutes of boil, a second aliquot (0.5 ounces) of Cascade hops was added. At 40 minutes of boil, third aliquot (0.5 ounces) of Cascade hops was added as well as 2 teaspoons of […] Moss. At 50 minutes of boil, a fourth aliquot (0.5 ounces) of Cascade hops was added. Wort was decanted from the brew kettle to the wort chiller and chilled to 74° F. The wort was then divided into two fermentors (each 21 liters in volume). […] Both fermentors were aerated for 25 minutes with sanitized filtered air stone.
substance,measurement,setting,value
Methylsulfonylmethane [MSM],Percent Transmittance,Bacillus coagulans; 1.0% MSM,51.5%
same,Percent Transmittance,Bacillus coagulans; 5.0% MSM,45.6%
same,Growth of Lactobacillus bulgaricus,"[1]; 0.125% MSM, 0 h",2.29
same,Growth of Lactobacillus bulgaricus,"[1]; 0.125% MSM, 8 h",4.15
same,Growth of Lactobacillus bulgaricus,"[1]; 0.125% MSM, 16 h",8.22
same,Growth of Lactobacillus bulgaricus,"[1]; 0.125% MSM, 24 h",9.04
same,Growth of Lactobacillus bulgaricus,"[1]; 0.125% MSM, 32 h",8.55
same,Growth of Lactobacillus bulgaricus,"[1]; 0.125% MSM, 40 h",9.29
same,Growth of Lactobacillus bulgaricus,"[1]; 0.125% MSM, 48 h",10.94
same,Growth of Lactobacillus bulgaricus,"[1]; 0.125% MSM, 56 h",8.00
same,Growth of Lactobacillus bulgaricus,"[1]; 0.125% MSM, 64 h",8.59
same,Growth of Lactobacillus bulgaricus,"[1]; 0.125% MSM, 72 h",6.74
same,Growth of Lactobacillus bulgaricus,"[1]; 0.2% MSM, 0 h",2.25
same,Growth of Lactobacillus bulgaricus,"[1]; 0.2% MSM, 8 h",4.08
same,Growth of Lactobacillus bulgaricus,"[1]; 0.2% MSM, 16 h",8.34
same,Growth of Lactobacillus bulgaricus,"[1]; 0.2% MSM, 24 h",9.10
same,Growth of Lactobacillus bulgaricus,"[1]; 0.2% MSM, 32 h",9.60
same,Growth of Lactobacillus bulgaricus,"[1]; 0.2% MSM, 40 h",9.11
same,Growth of Lactobacillus bulgaricus,"[1]; 0.2% MSM, 48 h",11.07
same,Growth of Lactobacillus bulgaricus,"[1]; 0.2% MSM, 56 h",8.79
same,Growth of Lactobacillus bulgaricus,"[1]; 0.2% MSM, 64 h",8.79
same,Growth of Lactobacillus bulgaricus,"[1]; 0.2% MSM, 72 h",6.72
same,Growth of Lactobacillus bulgaricus,"[1]; 0.50% MSM, 0 h",2.23
same,Growth of Lactobacillus bulgaricus,"[1]; 0.50% MSM, 8 h",4.42
same,Growth of Lactobacillus bulgaricus,"[1]; 0.50% MSM, 16 h",8.28
same,Growth of Lactobacillus bulgaricus,"[1]; 0.50% MSM, 24 h",9.05
same,Growth of Lactobacillus bulgaricus,"[1]; 0.50% MSM, 32 h",9.54
same,Growth of Lactobacillus bulgaricus,"[1]; 0.50% MSM, 40 h",9.40
same,Growth of Lactobacillus bulgaricus,"[1]; 0.50% MSM, 48 h",10.82
same,Growth of Lactobacillus bulgaricus,"[1]; 0.50% MSM, 56 h",9.14
same,Growth of Lactobacillus bulgaricus,"[1]; 0.50% MSM, 64 h",8.80
same,Growth of Lactobacillus bulgaricus,"[1]; 0.50% MSM, 72 h",6.72
same,Growth of Lactobacillus bulgaricus,"[1]; 1% MSM, 0 h",2.29
same,Growth of Lactobacillus bulgaricus,"[1]; 1% MSM, 8 h",4.83
same,Growth of Lactobacillus bulgaricus,"[1]; 1% MSM, 16 h",8.36
same,Growth of Lactobacillus bulgaricus,"[1]; 1% MSM, 24 h",9.03
same,Growth of Lactobacillus bulgaricus,"[1]; 1% MSM, 32 h",9.31
same,Growth of Lactobacillus bulgaricus,"[1]; 1% MSM, 40 h",9.34
same,Growth of Lactobacillus bulgaricus,"[1]; 1% MSM, 48 h",11.23
same,Growth of Lactobacillus bulgaricus,"[1]; 1% MSM, 56 h",8.11
same,Growth of Lactobacillus bulgaricus,"[1]; 1% MSM, 64 h",6.50
same,Growth of Lactobacillus bulgaricus,"[1]; 1% MSM, 72 h",6.45
same,Growth of Lactobacillus bulgaricus,"[1]; 5% MSM, 0 h",2.19
same,Growth of Lactobacillus bulgaricus,"[1]; 5% MSM, 8 h",3.28
same,Growth of Lactobacillus bulgaricus,"[1]; 5% MSM, 16 h",7.39
same,Growth of Lactobacillus bulgaricus,"[1]; 5% MSM, 24 h",8.50
same,Growth of Lactobacillus bulgaricus,"[1]; 5% MSM, 32 h",9.29
same,Growth of Lactobacillus bulgaricus,"[1]; 5% MSM, 40 h",9.37
same,Growth of Lactobacillus bulgaricus,"[1]; 5% MSM, 48 h",10.92
same,Growth of Lactobacillus bulgaricus,"[1]; 5% MSM, 56 h",10.07
same,Growth of Lactobacillus bulgaricus,"[1]; 5% MSM, 64 h",10.96
same,Growth of Lactobacillus bulgaricus,"[1]; 5% MSM, 72 h",8.62
same,Growth of Lactobacillus bulgaricus,"[1]; […] MSM, 0 h",2.26
same,Growth of Lactobacillus bulgaricus,"[1]; […] MSM, 8 h",4.57
same,Growth of Lactobacillus bulgaricus,"[1]; […] MSM, 16 h",8.09
same,Growth of Lactobacillus bulgaricus,"[1]; […] MSM, 24 h",9.01
same,Growth of Lactobacillus bulgaricus,"[1]; […] MSM, 32 h",9.15
same,Growth of Lactobacillus bulgaricus,"[1]; […] MSM, 40 h",9.27
same,Growth of Lactobacillus bulgaricus,"[1]; […] MSM, 48 h",11.37
same,Growth of Lactobacillus bulgaricus,"[1]; […] MSM, 56 h",8.23
same,Growth of Lactobacillus bulgaricus,"[1]; […] MSM, 64 h",8.75
same,Growth of Lactobacillus bulgaricus,"[1]; […] MSM, 72 h",6.51
same,Log Growth of Lactobacillus acidophilus in Milk fortified with MSM,[2]; Day 7,10.42 logs
same,Log Growth of Lactobacillus acidophilus in Milk fortified with MSM,[2]; Day 21,5.37 logs
same,Log Growth of Lactobacillus acidophilus in Milk fortified with MSM,[2]; Day 28,3.94 logs
same,Log Growth of Lactobacillus acidophilus in Milk fortified with MSM,[2]; hour 0,6.41 logs
same,Log Growth of Lactobacillus acidophilus in Milk fortified with MSM,[2]; hour 8,8.67 logs
same,Log Growth of Lactobacillus acidophilus in Milk fortified with MSM,[2]; hour 24,9.16 logs
same,Log Growth of Lactobacillus acidophilus in Milk fortified with MSM,[2]; hour 32,8.87 logs
same,Log Growth of Lactobacillus acidophilus in Milk fortified with MSM,[2]; hour 48,8.3 logs
same,Log Growth of Lactobacillus acidophilus in Milk fortified with MSM,[2]; hour 56,8.56 logs
same,Log Growth of Lactobacillus acidophilus in Milk fortified with MSM,[2]; hour 72,8.45 logs
same,Log Growth of Lactobacillus acidophilus in Milk fortified with MSM,[2]; hour 80,9.82 logs
same,Log Growth of Lactobacillus acidophilus in Milk fortified with MSM,[2]; hour 96,8.61 logs
same,Log Growth of Lactobacillus acidophilus in Milk fortified with MSM,[2]; hour 104,8.92 logs
same,fermentor activity sooner than control,[3],58%
same,sooner time of completion,[3],17-25%
same,starter activity sooner than control,[3],80%
same,"time to activity, fermentor",[3],3.5 h
same,time to maximum fermentation,[3],5 days
